Reference: the supplement of paper PMC10733146

Experiments:
Test in all cases: viability relative to DMSO control (fraction); higher = less drug effect (more viable cells)
Settings in all cases: 48 h
[1] = compound: CCc1ccc(/C=C2/SC(=S)NC2=O)cc1
How it was run: (§1)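 Viability was quantified by CellTiter-Glo luminescence and related to the median of 16 inner DMSO wells. Before that, primary mononuclear tumour cells, fresh or cryopreserved and Ficoll-isolated from blood or bone marrow or prepared from processed lymph node, were plated at 4 × 10^4 cells per well in 384-well plates containing pre-plated compounds at five concentrations, one well each. Plates were incubated in RPMI-1640 with penicillin/streptomycin, L-glutamine and human serum at 37 °C and 5% CO2 for 48 h.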

[2] = compound: O=C(NO)c1cccc(C(=O)NCCc2ccccc2)c1
How it was run: as §1

[3] = compound: Nc1cccc2c1C(=O)N(C1CCC(=O)NC1=O)C2=O [Pomalidomide]
How it was run: as §1

[4] = compound: CCNC(=O)C[C@@H]1N=C(c2ccc(Cl)cc2)c2cc(OC)ccc2-n2c(C)nnc21 [I-BET-762]
How it was run: as §1

[5] = compound: O=C(/C=C\n1cnc(-c2cc(C(F)(F)F)cc(C(F)(F)F)c2)n1)NNc1cnccn1 [Selinexor]
How it was run: as §1

[6] = compound: Cn1c(CCCC(=O)O)nc2cc(N(CCCl)CCCl)ccc21 [Bendamustine]
How it was run: as §1

[7] = compound: CCS(=O)(=O)N1CCC([C@@H](C)n2c(C)c(C(=O)NCc3c(OC)cc(C)[nH]c3=O)c3ccccc32)CC1 [CPI-169]
How it was run: as §1

[8] = compound: CC1(C)CCC(c2ccc(Cl)cc2)=C(CN2CCN(c3ccc(C(=O)NS(=O)(=O)c4ccc(N[C@H](CCN5CCOCC5)CSc5ccccc5)c(S(=O)(=O)C(F)(F)F)c4)cc3)CC2)C1 [Navitoclax]
How it was run: as §1

[9] = compound: C[C@@H]1CCN(C(=O)CC#N)C[C@@H]1N(C)c1ncnc2[nH]ccc12 [Tofacitinib]
How it was run: as §1

## primary DLBCL patient cells (S076)
[1]; 0.024 µM
  viability: 0.949
[1]; 0.12 µM
  viability: 0.942
[1]; 0.6 µM
  viability: 1.07
[1]; 3 µM
  viability: 0.995
[1]; 15 µM
  viability: 0.942
[2]; 0.024 µM
  viability: 1.15
[2]; 0.12 µM
  viability: 1.12
[2]; 0.6 µM
  viability: 1.09
[2]; 3 µM
  viability: 1.13
[2]; 15 µM
  viability: 1.17
[3]; 0.0032 µM
  viability: 0.926
[3]; 0.016 µM
  viability: 1.07
[3]; 0.08 µM
  viability: 1.08
[3]; 0.4 µM
  viability: 0.84
[3]; 2 µM
  viability: 1.05
[4]; 0.008 µM
  viability: 1.08
[4]; 0.04 µM
  viability: 1.04
[4]; 0.2 µM
  viability: 0.94
[4]; 1 µM
  viability: 0.82
[4]; 5 µM
  viability: 0.738
[5]; 0.008 µM
  viability: 0.97
[5]; 0.04 µM
  viability: 0.943
[5]; 0.2 µM
  viability: 0.819
[5]; 1 µM
  viability: 0.563
[5]; 5 µM
  viability: 0.331
[6]; 0.032 µM
  viability: 0.945
[6]; 0.16 µM
  viability: 1.1
[6]; 0.8 µM
  viability: 1.08
[6]; 4 µM
  viability: 0.965
[6]; 20 µM
  viability: 0.759
[7]; 0.024 µM
  viability: 1.04
[7]; 0.12 µM
  viability: 1.04
[7]; 0.6 µM
  viability: 1.07
[7]; 3 µM
  viability: 0.993
[7]; 15 µM
  viability: 1.05
[8]; 0.0032 µM
  viability: 1.07
[8]; 0.016 µM
  viability: 0.95
[8]; 0.08 µM
  viability: 0.689
[8]; 0.4 µM
  viability: 0.279
[8]; 2 µM
  viability: 0.15
[9]; 0.024 µM
  viability: 0.916
[9]; 0.12 µM
  viability: 0.864
[9]; 0.6 µM
  viability: 0.818
[9]; 3 µM
  viability: 0.823
[9]; 15 µM
  viability: 0.824

## primary T-NHL patient cells (S058)
[1]; 0.024 µM
  viability: 0.89
[1]; 0.12 µM
  viability: 0.978
[1]; 0.6 µM
  viability: 1.14
[1]; 3 µM
  viability: 0.927
[1]; 15 µM
  viability: 0.909
[2]; 0.024 µM
  viability: 1.02
[2]; 0.12 µM
  viability: 1.31
[2]; 0.6 µM
  viability: 1.07
[2]; 3 µM
  viability: 1.02
[2]; 15 µM
  viability: 1.08
[3]; 0.0032 µM
  viability: 0.937
[3]; 0.016 µM
  viability: 1.16
[3]; 0.08 µM
  viability: 1.27
[3]; 0.4 µM
  viability: 0.858
[3]; 2 µM
  viability: 1.2
[4]; 0.008 µM
  viability: 1.17
[4]; 0.04 µM
  viability: 1.03
[4]; 0.2 µM
  viability: 0.904
[4]; 1 µM
  viability: 0.816
[4]; 5 µM
  viability: 0.61
[5]; 0.008 µM
  viability: 0.967
[5]; 0.04 µM
  viability: 0.877
[5]; 0.2 µM
  viability: 0.806
[5]; 1 µM
  viability: 0.709
[5]; 5 µM
  viability: 0.469
[6]; 0.032 µM
  viability: 0.971
[6]; 0.16 µM
  viability: 1.01
[6]; 0.8 µM
  viability: 0.925
[6]; 4 µM
  viability: 0.868
[6]; 20 µM
  viability: 0.564
[7]; 0.024 µM
  viability: 1.03
[7]; 0.12 µM
  viability: 1.06
[7]; 0.6 µM
  viability: 0.995
[7]; 3 µM
  viability: 1.05
[7]; 15 µM
  viability: 0.961
[8]; 0.0032 µM
  viability: 1.19
[8]; 0.016 µM
  viability: 1.08
[8]; 0.08 µM
  viability: 1.01
[8]; 0.4 µM
  viability: 0.568
[8]; 2 µM
  viability: 0.325
[9]; 0.024 µM
  viability: 0.865
[9]; 0.12 µM
  viability: 0.895
[9]; 0.6 µM
  viability: 0.94
[9]; 3 µM
  viability: 0.935
[9]; 15 µM
  viability: 0.937
